A word on the IC50: it is the point on the concentration scale where inhibition reaches its midpoint.

The source made the active and inactive calls. The calls are words filed in the database; no cut-off is given here. Some results are limits rather than exact numbers.

Series [1] has as its system RAW264.7. Kind of series: Antiinflammatory activity in mouse RAW264.7 cells assessed as inhibition of LPS-induced nitirc oxide production preincubated for 1 hr followed by LPS-stimulation and measured after 18 hrs by Griess assay. The series is classed as functional, cell-based.
Series [2] can be described thus: Cytotoxicity against LPS-stimulated mouse RAW264.7 cells assessed as cell viability at antiinflammatory IC50 preincubated for 1 hr followed by LPS-stimulation and measured after 18 hrs by MTT assay relative to control. Type of series: cell-based. The following applies: LPS-stimulated RAW264.7 cells, read-out: Activity.
Series [3] relates to RAW264.7. The series can be described thus: Antiinflammatory activity in mouse RAW264.7 cells assessed as inhibition of LPS-induced COX2 expression at 1 to 5 uM preincubated for 1 hr followed by LPS-stimulation and measured after 16 hrs by Western blot analysis. Type of series: functional, cell-based. (In general: In western blotting, separated proteins are transferred to a membrane and probed.)

The test system of series [4] is RAW264.7. The series can be described thus: Antiinflammatory activity in mouse RAW264.7 cells assessed as inhibition of LPS-induced iNOS expression at 1 to 5 uM preincubated for 1 hr followed by LPS-stimulation and measured after 16 hrs by Western blot analysis. The series is classed as functional, cell-based.

Take `C[C@@H]1O[C@@H](O[C@H]2[C@H](O[C@H]3CC[C@]4(C)[C@H]5CC=C6[C@@H]7CC(C)(C)CC[C@]7(C(=O)O)CC[C@@]6(C)[C@]5(C)CC[C@H]4C3(C)C)OC[C@H](O[C@@H]3O[C@H](CO)[C@@H](O)[C@H](O)[C@H]3O)[C@@H]2O)[C@H](O)[C@H](O)[C@H]1O[C@@H]1O[C@H](CO)[C@@H](O)[C@H](O)[C@H]1O`: the IC50 in the series on RAW264.7 [1] was > 50 µM.

As to `CC1(C)CC[C@]2(C(=O)O)CC[C@]3(C)C(=CC[C@@H]4[C@@]5(C)C[C@@H](O)[C@H](O)[C@@](C)(CO)[C@@H]5CC[C@]43C)[C@@H]2C1` [ARJUNOLIC ACID], in the series on RAW264.7 [1], the IC50 was 15.2 µM.

Turning to `C[C@@H]1O[C@@H](O[C@H]2[C@H](O[C@H]3CC[C@]4(C)[C@H]5CC=C6[C@@H]7CC(C)(C)CC[C@]7(C(=O)O)CC[C@@]6(C)[C@]5(C)CC[C@H]4C3(C)C)O[C@H](CO)[C@@H](O)[C@@H]2O)[C@H](O)[C@H](O)[C@H]1O`, the viability at 18 h in series [2] was < 60%. Moreover, the IC50 in the series on RAW264.7 [1] turned out to be 1.5 µM.

As to `C[C@@H]1O[C@@H](O[C@H]2[C@H](O[C@H]3CC[C@@]4(C)[C@@H](CC[C@]5(C)[C@@H]4CC=C4[C@@H]6CC(C)(C)CC[C@]6(C(=O)O)CC[C@]45C)[C@]3(C)CO)OC[C@H](O)[C@@H]2O)[C@H](O)[C@H](O)[C@H]1O` [ALPHA-HEDERIN], the inhibition entry in the series on RAW264.7 [3] and in the series with RAW264.7 [4] was “Active” in each case. Besides, in the series with RAW264.7 [1], the IC50 was found to be 1.1 µM.

As to `C[C@@H]1O[C@@H](O[C@H]2[C@H](O[C@H]3CC[C@]4(C)[C@H]5CC=C6[C@@H]7CC(C)(C)CC[C@]7(C(=O)O)CC[C@@]6(C)[C@]5(C)CC[C@H]4C3(C)C)OC[C@H](O)[C@@H]2O)[C@H](O)[C@H](O)[C@H]1O`, the inhibition entry with RAW264.7 [3] and in the series on RAW264.7 [4] was “Active” in each case. Besides, the IC50 in the series with RAW264.7 [1] lay in the range of 1.3 to 1.33 µM.

On to `COc1cc(CCC(=O)O)ccc1O` [DIHYDROFERULIC ACID], for which the IC50 in the series with RAW264.7 [1] was > 50 µM.

For the molecule `C[C@@H]1C[C@H]2[C@@H]3CCC4=CC(=O)C=C[C@]4(C)[C@@]3(F)[C@@H](O)C[C@]2(C)[C@@]1(O)C(=O)CO` [DEXAMETHASONE], in the series with RAW264.7 [1], the IC50 is 0.01 µM.

As for `C[C@@H]1O[C@@H](O[C@H]2[C@H](O[C@H]3CC[C@]4(C)[C@H]5CC=C6[C@@H]7CC(C)(C)CC[C@]7(C(=O)O[C@@H]7O[C@H](CO)[C@@H](O)[C@H](O)[C@H]7O)CC[C@@]6(C)[C@]5(C)CC[C@H]4C3(C)C)OC[C@H](O)[C@@H]2O)[C@H](O)[C@H](O)[C@H]1O`, the half-maximal inhibitory concentration (IC50) in the series on RAW264.7 [1] was > 50 µM.

For `CC1(C)CC[C@]2(C(=O)O)CC[C@]3(C)C(=CC[C@@H]4[C@@]5(C)CC[C@@H](O)[C@@](C)(CO)[C@@H]5CC[C@]43C)[C@@H]2C1`, the concentration for half-maximal inhibition (IC50) in the series with RAW264.7 [1] was > 50 µM.

Take `CC1(C)CC[C@]2(C(=O)O)CC[C@]3(C)C(=CC[C@@H]4[C@@]5(C)CC[C@H](O[C@@H]6O[C@H](CO)[C@@H](O)[C@H](O)[C@H]6O[C@@H]6OC[C@H](O)[C@H](O)[C@H]6O)C(C)(C)[C@@H]5CC[C@]43C)[C@@H]2C1`: the concentration for half-maximal inhibition (IC50) in the series on RAW264.7 [1] fell in the range of 3.1 to 3.13 µM.

`C[C@@H]1O[C@@H](O[C@H]2[C@H](O)[C@@H](O)[C@H](OC[C@H]3O[C@@H](OC(=O)[C@]45CCC(C)(C)C[C@H]4C4=CC[C@@H]6[C@@]7(C)CC[C@H](O[C@@H]8OC[C@H](O)[C@H](O[C@@H]9OC[C@H](O)[C@H](O)[C@H]9O)[C@H]8O)C(C)(C)[C@@H]7CC[C@@]6(C)[C@]4(C)CC5)[C@H](O)[C@@H](O)[C@@H]3O)O[C@@H]2CO)[C@H](O)[C@H](O)[C@H]1O`: in the series with RAW264.7 [1], the IC50 is > 50 µM.

With `CC1=CC(=O)CC(C)(C)[C@@]1(O)/C=C/[C@H](C)O`, in the series on RAW264.7 [1], the 50% inhibitory concentration (IC50) was > 50 µM.

On to `C[C@@H]1O[C@@H](O[C@H]2[C@H](O)[C@@H](O)[C@H](OC[C@H]3O[C@@H](OC(=O)[C@]45CCC(C)(C)C[C@H]4C4=CC[C@@H]6[C@@]7(C)CC[C@H](O[C@@H]8OC[C@H](O)[C@H](O)[C@H]8O)[C@@](C)(CO)[C@@H]7CC[C@@]6(C)[C@]4(C)CC5)[C@H](O)[C@@H](O)[C@@H]3O)O[C@@H]2CO)[C@H](O)[C@H](O)[C@H]1O` [CAULOSIDE D], for which the viability at 18 h in series [2] was < 60%. Besides, the IC50 with RAW264.7 [1] lay in the range of 3.68 to 3.7 µM.

As for `CC1(C)CC[C@]2(C(=O)O[C@@H]3O[C@H](CO[C@@H]4O[C@H](CO)[C@@H](O)[C@H](O)[C@H]4O)[C@@H](O)[C@H](O)[C@H]3O)CC[C@]3(C)C(=CC[C@@H]4[C@@]5(C)CC[C@H](O[C@@H]6O[C@H](CO)[C@@H](O)[C@H](O)[C@H]6O)C(C)(C)[C@@H]5CC[C@]43C)[C@@H]2C1`, in the series with RAW264.7 [1], the IC50 is > 50 µM.

`CC1(C)CC[C@]2(C(=O)O[C@@H]3O[C@H](CO[C@@H]4O[C@H](CO)[C@@H](O)[C@H](O)[C@H]4O)[C@@H](O)[C@H](O)[C@H]3O)CC[C@]3(C)C(=CC[C@@H]4[C@@]5(C)CC[C@H](O[C@@H]6OC[C@H](O)[C@H](O)[C@H]6O[C@@H]6O[C@H](CO)[C@@H](O)[C@H](O)[C@H]6O)C(C)(C)[C@@H]5CC[C@]43C)[C@@H]2C1`: the half-maximal inhibitory concentration (IC50) in the series with RAW264.7 [1] is > 50 µM.

With `COc1cc(O)cc(OC)c1O[C@@H]1O[C@H](CO)[C@@H](O)[C@H](O)[C@H]1O` [LEONURISIDE], the IC50 in the series with RAW264.7 [1] was > 50 µM.

As for `CC1(C)[C@H](O)CC[C@]2(C)[C@H]3CC=C4[C@@H]5C[C@](C)(CO)CC[C@]5(C(=O)O)CC[C@@]4(C)[C@]3(C)CC[C@@H]12`, the IC50 with RAW264.7 [1] was > 50 µM.

As to `C[C@@H]1O[C@@H](O[C@H]2[C@H](O[C@H]3CC[C@@]4(C)[C@@H](CC[C@]5(C)[C@@H]4CC=C4[C@@H]6CC(C)(C)CC[C@]6(C(=O)O[C@@H]6O[C@H](CO[C@@H]7O[C@H](CO)[C@@H](O[C@@H]8O[C@@H](C)[C@H](O)[C@@H](O)[C@H]8O)[C@H](O)[C@H]7O)[C@@H](O)[C@H](O)[C@H]6O)CC[C@]45C)[C@]3(C)CO)OC[C@H](O)[C@@H]2O)[C@H](O)[C@H](O)[C@H]1O` [KALOPANAXSAPONIN B], the IC50 with RAW264.7 [1] was > 50 µM.

As for `CC1(C)CC[C@]2(C(=O)O)CC[C@]3(C)C(=CC[C@@H]4[C@@]5(C)CC[C@H](O[C@@H]6OC[C@H](O)[C@H](O)[C@H]6O)C(C)(C)[C@@H]5CC[C@]43C)[C@@H]2C1`, in the series with RAW264.7 [1], the IC50 lay within 4 to 4.04 µM.

For the molecule `COC(=O)C(CC(=O)O)OC(=O)/C=C/c1ccc(O)c(O)c1` (stereo not drawn), the IC50 in the series on RAW264.7 [1] was > 50 µM.

On to `C[C@@H]1O[C@@H](O[C@H]2[C@H](O)[C@@H](O)[C@H](OC[C@H]3O[C@@H](OC(=O)[C@]45CCC(C)(C)C[C@H]4C4=CC[C@@H]6[C@@]7(C)CC[C@H](O[C@@H]8OC[C@H](O)[C@H](O)[C@H]8O[C@@H]8O[C@H](CO)[C@@H](O)[C@H](O)[C@H]8O)C(C)(C)[C@@H]7CC[C@@]6(C)[C@]4(C)CC5)[C@H](O)[C@@H](O)[C@@H]3O)O[C@@H]2CO)[C@H](O)[C@H](O)[C@H]1O`, for which the IC50 with RAW264.7 [1] is > 50 µM.

Consider `CC1(C)CC[C@]2(C(=O)O)CC[C@]3(C)C(=CC[C@@H]4[C@@]5(C)CC[C@H](O[C@@H]6OC[C@H](O)[C@H](O)[C@H]6O)[C@@](C)(CO)[C@@H]5CC[C@]43C)[C@@H]2C1`, for which the IC50 in the series with RAW264.7 [1] lay in the range of 2.25 to 2.3 µM.

`CC1(C)CC[C@]2(C(=O)O[C@@H]3O[C@H](CO[C@@H]4O[C@H](CO)[C@@H](O)[C@H](O)[C@H]4O)[C@@H](O)[C@H](O)[C@H]3O)CC[C@]3(C)C(=CC[C@@H]4[C@@]5(C)CC[C@H](O[C@@H]6OC[C@H](O)[C@H](O)[C@H]6O)[C@@](C)(CO)[C@@H]5CC[C@]43C)[C@@H]2C1`: the IC50 in the series with RAW264.7 [1] was > 50 µM.

Turning to `CC1(C)CC[C@]2(C(=O)O)CC[C@]3(C)C(=CC[C@@H]4[C@@]5(C)CC[C@H](O[C@@H]6O[C@H](CO)[C@@H](O)[C@H](O)[C@H]6O)[C@@](C)(CO)[C@@H]5CC[C@]43C)[C@@H]2C1` [Hederagenin-3-O-beta-D-glucopyranoside], the IC50 with RAW264.7 [1] came out at 13.4 µM.

For the molecule `C[C@@H]1O[C@@H](O[C@H]2[C@H](O[C@H]3CC[C@@]4(C)[C@@H](CC[C@]5(C)[C@@H]4CC=C4[C@@H]6CC(C)(C)CC[C@]6(C(=O)O)CC[C@]45C)[C@]3(C)CO)O[C@H](CO)[C@@H](O)[C@@H]2O)[C@H](O)[C@H](O)[C@H]1O`, the IC50 with RAW264.7 [1] was 4.2 to 4.21 µM.

For `C[C@@H]1O[C@@H](O[C@H]2[C@H](O[C@H]3CC[C@]4(C)[C@H]5CC=C6[C@@H]7CC(C)(C)CC[C@]7(C(=O)O[C@@H]7O[C@H](CO[C@@H]8O[C@H](CO)[C@@H](O[C@@H]9O[C@@H](C)[C@H](O)[C@@H](O)[C@H]9O)[C@H](O)[C@H]8O)[C@@H](O)[C@H](O)[C@H]7O)CC[C@@]6(C)[C@]5(C)CC[C@H]4C3(C)C)OC[C@H](O)[C@@H]2O)[C@H](O)[C@H](O)[C@H]1O` [HEDERASAPONIN B], in the series with RAW264.7 [1], the IC50 was > 50 µM.

As for `C[C@@H]1O[C@@H](O[C@H]2[C@H](O)[C@@H](O)[C@H](OC[C@H]3O[C@@H](OC(=O)[C@]45CCC(C)(C)C[C@H]4C4=CC[C@@H]6[C@@]7(C)CC[C@H](O)[C@@](C)(CO)[C@@H]7CC[C@@]6(C)[C@]4(C)CC5)[C@H](O)[C@@H](O)[C@@H]3O)O[C@@H]2CO)[C@H](O)[C@H](O)[C@H]1O` [KIZUTA CIRENSENOSIDE O SAPONIN K3], the IC50 with RAW264.7 [1] was > 50 µM.
